Measured values as given in patent EP4748837A1, “AROMATIC AMIDE DERIVATIVE, AND PREPARATION METHOD THEREFOR AND USE THEREOF” (Zhejiang Hisun Pharmaceutical Co., Ltd., priority 2023, dated 2025).
Like-named read-outs stand apart in the source and are kept apart here.

Assays:
OVCAR-3 cells = assay: Inhibition of OVCAR-3 cell proliferation (CellTiter-Glo cell viability); format: cell-based; conditions: Homo sapiens
Procedure: (§1) Influences of the compounds of the present invention on OVCAR-3 cell proliferation were determined by the following method. OVCAR-3 cells (containing TP53 R248Q mutation) were purchased from the Cell Bank of Shanghai Institute of Biochemistry and Cell Biology, Chinese Academy of Sciences, and cultured in an RPMI 1640 culture medium containing 10% fetal bovine serum, 100 U penicillin and 100 µg/mL streptomycin. A cell viability was determined by a CellTiter-Glo® Luminescent Cell Viability Assay kit (Promega, article number G7573).
(§2) An experimental method was operated according to steps in the instruction of the kit, which was briefly described as follows: a test compound was dissolved in DMSO first to prepare a 10 mM stock solution, then the stock solution was diluted with the culture medium to prepare a test sample, and a final concentration of the compound was in a range of 1000 nM-0.015 nM. Cells in a logarithmic growth phase were inoculated into a 96-well cell culture plate at a density of 1000 cells per well, cultured in a 5% CO2 incubator at 37°C overnight, and then the test compound was added to continuously culture for 72 hours. After the culture was ended, 50 uL of CellTiter-Glo detection solution was added to each well , shaken for 5 minutes, and then allowed to stand for 10 minutes, and subsequently, a luminance value of each well of the sample was read by a microplate reader in a Luminescence mode. By comparing with the numerical value of a control group (0.3% DMSO), a percentage inhibition rate of the compound at each concentration point was calculated, and then nonlinear regression analysis was carried out based on concentration logarithm-inhibition rate of the compound in GraphPad Prism 5 software, so as to obtain an IC50 value of the compound for inhibiting the cell proliferation, which was as shown in Table 1. Table 1 IC50 data of the compounds of the present invention for inhibiting OVCAR-3 cell proliferation

HT-29 cells = assay: Inhibition of HT-29 cell proliferation (CellTiter-Glo cell viability); format: cell-based; conditions: Homo sapiens
Procedure: as §1, with “HT-29” for “OVCAR-3”, “R273H” for “R248Q”, “a McCOY's 5A” for “an RPMI 1640”
as §2, with “for 120” for “for 72”, “each well,” for “each well ,”, “Table 2.” for “Table 1.”, “Table 2” for “Table 1”, “inhibiting HT-29” for “inhibiting OVCAR-3”

recombinant human KIF18A = biological target: T1, recombinant human KIF18A (Homo sapiens, UniProt Q8NI77); assay: Inhibition of KIF18A enzyme activity (ADP-Glo assay); format: biochemical; conditions: recombinant human KIF18A 100 nM, ATP 60 µM, tubulin, paclitaxel
T1 construct: purchased GenScript
Procedure: Inhibition degrees of the compounds of the present invention on recombinant human KIF18A enzyme activity in vitro were determined by the following method. An ADP-Glo™ Kinase Assay kit (article number V9102) from Promega Company was used in this method. Detailed experimental operation referred to the instruction of the kit.
An experimental process was briefly described as follows: a test compound was dissolved in DMSO first to prepare a stock solution, then the stock solution was gradiently diluted with a reaction buffer A ([…], 0.01% Pluronic F-68), and a final concentration of the test compound in the reaction system was in a range of 10000 nM-0.15 nM; and a KIF18A protein and ATP working solution was prepared by using a reaction buffer B (15 mM Tris, pH 7.5, 10 mM MgCl2, 0.01% Pluronic F-68, 37.5 µg/ml tubulin, 1.25 µM paclitaxel). The reaction was carried out in a 384-well microplate. The test compound and the recombinant human KIF18A protein (final concentration of 100 nM, entrusted to GenScript for expression) were added into the wells and incubated at room temperature for 20 minutes, and subsequently, an ATP solution (component V915A from the ADP-Glo™ Kinase Assay kit, final concentration of 60 µM) was added to the reaction solution and the system was incubated at room temperature for 20 minutes. Subsequently, 5 µL of ADP-Glo Reagent was added to the reaction systemand the system was incubated at room temperature for 50 minutes. Then, 10 µL of Kinase Detection Reagent was added to the reaction system and the system was incubated at room temperature for 30 minutes. After the incubation was ended, a chemiluminiscence intensity value of each well was determined by a microplate reader in a Luminescence mode.

[1] = OVCAR-3 cells (TP53 R248Q mutation), 72 hours culture with compound, read-out: IC50
[2] = HT-29 cells (TP53 R273H mutation), 120 hours culture with compound, read-out: IC50

T1 sequence (Q8NI77 whole entry): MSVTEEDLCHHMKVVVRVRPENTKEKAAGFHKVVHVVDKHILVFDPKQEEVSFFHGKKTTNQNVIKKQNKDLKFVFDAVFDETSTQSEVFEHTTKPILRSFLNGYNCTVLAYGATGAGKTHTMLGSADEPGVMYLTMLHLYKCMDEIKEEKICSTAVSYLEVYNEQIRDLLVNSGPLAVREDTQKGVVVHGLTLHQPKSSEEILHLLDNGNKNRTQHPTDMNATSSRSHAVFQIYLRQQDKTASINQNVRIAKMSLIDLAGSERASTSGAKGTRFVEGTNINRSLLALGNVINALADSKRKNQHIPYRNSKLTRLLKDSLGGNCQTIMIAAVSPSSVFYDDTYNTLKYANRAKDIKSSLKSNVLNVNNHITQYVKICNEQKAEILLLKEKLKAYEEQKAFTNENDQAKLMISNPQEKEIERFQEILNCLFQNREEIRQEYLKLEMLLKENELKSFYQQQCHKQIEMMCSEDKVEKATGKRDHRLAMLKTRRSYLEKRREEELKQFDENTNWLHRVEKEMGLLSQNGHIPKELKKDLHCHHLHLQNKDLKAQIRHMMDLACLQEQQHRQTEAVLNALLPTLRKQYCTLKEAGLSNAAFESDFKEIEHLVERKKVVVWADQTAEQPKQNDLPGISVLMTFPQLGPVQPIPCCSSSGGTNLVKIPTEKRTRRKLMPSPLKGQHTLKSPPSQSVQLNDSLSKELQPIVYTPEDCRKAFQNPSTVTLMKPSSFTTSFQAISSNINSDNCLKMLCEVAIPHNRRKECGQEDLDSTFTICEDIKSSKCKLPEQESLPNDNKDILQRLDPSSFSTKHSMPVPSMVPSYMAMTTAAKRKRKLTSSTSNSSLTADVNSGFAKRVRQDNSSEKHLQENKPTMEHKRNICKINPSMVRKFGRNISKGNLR
T1 sequence (P68363 whole entry partner): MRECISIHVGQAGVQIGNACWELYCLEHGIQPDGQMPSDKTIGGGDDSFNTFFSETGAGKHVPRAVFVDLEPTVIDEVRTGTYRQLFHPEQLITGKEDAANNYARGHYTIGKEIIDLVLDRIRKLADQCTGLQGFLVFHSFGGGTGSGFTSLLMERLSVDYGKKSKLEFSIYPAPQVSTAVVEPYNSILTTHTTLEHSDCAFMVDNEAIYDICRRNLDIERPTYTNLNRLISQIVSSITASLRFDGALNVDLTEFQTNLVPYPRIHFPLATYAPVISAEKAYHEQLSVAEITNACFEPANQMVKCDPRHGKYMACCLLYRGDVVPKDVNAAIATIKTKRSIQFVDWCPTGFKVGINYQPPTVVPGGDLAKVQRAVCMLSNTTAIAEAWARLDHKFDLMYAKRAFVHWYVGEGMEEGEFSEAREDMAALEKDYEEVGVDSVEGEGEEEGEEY
T1 sequence (Q9BVA1 whole entry partner): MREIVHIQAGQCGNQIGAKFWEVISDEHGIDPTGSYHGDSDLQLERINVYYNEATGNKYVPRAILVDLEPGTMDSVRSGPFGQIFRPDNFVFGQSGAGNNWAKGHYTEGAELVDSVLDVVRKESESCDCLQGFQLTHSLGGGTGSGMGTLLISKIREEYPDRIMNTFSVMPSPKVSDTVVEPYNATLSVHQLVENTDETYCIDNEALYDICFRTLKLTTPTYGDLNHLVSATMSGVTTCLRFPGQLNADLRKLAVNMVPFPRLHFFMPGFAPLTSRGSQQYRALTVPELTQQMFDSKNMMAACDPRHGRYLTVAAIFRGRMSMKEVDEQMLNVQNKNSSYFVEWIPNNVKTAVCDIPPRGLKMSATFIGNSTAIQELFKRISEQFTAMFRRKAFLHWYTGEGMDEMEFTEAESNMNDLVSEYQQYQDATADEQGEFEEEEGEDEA

How did the IC50 (OVCAR-3 cells; [1]) turn out when `O=C(Nc1ccc(-c2ccnnc2)c(N2CCC(F)(F)CC2)c1)c1ccc(NS(=O)(=O)C2CC2)cc1N1CCC2(CC1)CC2` [Example 16, 4-(cyclopropanesulfonamido)-N-(3-(4,4-difluoropiperidin-1-yl)-4-(pyridazin-4-yl)phenyl)-2-(6-azaspiro[2.5]octan-6-yl)b enzamide] was run?
Its IC50 is 6.2 nM.

What about the IC50 (HT-29 cells; [2]) of the same molecule?
The IC50 was 4.6 nM.

And the IC50 (recombinant human KIF18A; read-out: IC50)?
The IC50 was 147 nM.

How did the IC50 (OVCAR-3 cells; [1]) turn out when `O=C(Nc1ccc(-c2ncccn2)c(N2CCC(F)(F)CC2)c1)c1ccc(NS(=O)(=O)C2CC2)cc1N1CCC2(CC1)CC2` [Example 17, 4-(cyclopropanesulfonamido)-N-(3-(4,4-difluoropiperidin-1-yl)-4-(pyrimidin-2-yl)phenyl)-2-(6-azaspiro[2.5]octan-6-yl)b enzamide] was run?
The IC50 was 3.2 nM.

And the IC50 (HT-29 cells; [2])?
Its IC50 is 3.3 nM.

And the IC50 (recombinant human KIF18A; read-out: IC50)?
Its IC50 is 121 nM.

`CCS(=O)(=O)Nc1ccc(C(=O)Nc2ccc(-c3ncccn3)c(N3CC(F)(F)C3)c2)c(N2CCC3(CC2)CC3)c1` [Example 18, N-(3-(3,3-difluoroazetidin-1-y 1)-4-(pyrimidin-2-yl)phenyl)-4-(ethylsulfonamido)-2-(6-azaspiro[2.5]octan-6-yl)benzamide] was tested. Which IC50 (OVCAR-3 cells; [1]) did it give?
Its IC50 is 6.5 nM.

And the IC50 (HT-29 cells; [2])?
The IC50 was 0.64 nM.

And the IC50 (recombinant human KIF18A; read-out: IC50)?
Its IC50 is 149 nM.

Which IC50 (OVCAR-3 cells; [1]) does the source give for `CCS(=O)(=O)Nc1ccc(C(=O)Nc2ccc(-c3ccnnc3)c(N3CC(F)(F)C3)c2)c(N2CCC3(CC2)CC3)c1` [Example 19, N-(3-(3,3-difluoroazetidin-1-y 1)-4-(pyridazin-4-yl)phenyl)-4-(ethylsulfonamido)-2-(6-azaspiro[2.5]octan-6-yl)benzamide] here?
The IC50 was 6.3 nM.

What about the IC50 (HT-29 cells; [2]) of the same molecule?
The IC50 was 0.44 nM.

And the IC50 (recombinant human KIF18A; read-out: IC50)?
The IC50 was 98.6 nM.

How did the IC50 (OVCAR-3 cells; [1]) turn out when `CCS(=O)(=O)Nc1ccc(C(=O)Nc2ccc(-n3ccnc3)c(N3CCC(F)(F)CC3)c2)c(N2CCC3(CC2)CC3)c1` [Example 20, N-(3-(4,4-difluoropiperidin-1-yl)-4-(1H-imidazol-1-yl)pheny 1)-4-(ethylsulfonamido)-2-(6-azaspiro[2.5]octan-6-yl)benzamide] was run?
Its IC50 is 8.5 nM.

What about the IC50 (HT-29 cells; [2]) of the same molecule?
Its IC50 is 6 nM.

And the IC50 (recombinant human KIF18A; read-out: IC50)?
The IC50 was 50.8 nM.

What does the source list for `CCS(=O)(=O)Nc1ccc(C(=O)Nc2ccc(-c3ncc[nH]3)c(N3CCC(F)(F)CC3)c2)c(N2CCC3(CC2)CC3)c1` [Example 25, N-(3-(4,4-difluoropiperidin-1-yl)-4-(1H-imidazol-2-yl)pheny 1)-4-(ethylsulfonamido)-2-(6-azaspiro[2.5]octan-6-yl)benzamide]?
IC50 (OVCAR-3 cells; OVCAR-3, 72 h): 3.5 nM; IC50 (HT-29 cells; HT-29, 120 h): 2.6 nM; IC50 (recombinant human KIF18A): 33.9 nM

For `CCS(=O)(=O)Nc1ccc(C(=O)Nc2ccc(-n3cncn3)c(N3CCC(F)(F)CC3)c2)c(N2CCC3(CC2)CC3)c1` [Example 28, N-(3-(4,4-difluoropiperidin-1-yl)-4-(1H-1,2,4-triazol-1-yl)phenyl)-4-(ethylsulfonamido)-2-(6-azaspiro[2.5]octan-6-yl)benz amide], which IC50 (OVCAR-3 cells; [1]) is on record?
Its IC50 is 12.4 nM.

What about the IC50 (HT-29 cells; [2]) of the same molecule?
Its IC50 is 8.4 nM.

And the IC50 (recombinant human KIF18A; read-out: IC50)?
Its IC50 is 59.1 nM.

How did the IC50 (OVCAR-3 cells; [1]) turn out when `CCS(=O)(=O)Nc1ccc(C(=O)Nc2ccc(-n3cnnn3)c(N3CCC(F)(F)CC3)c2)c(N2CCC3(CC2)CC3)c1` [Example 29, N-(3-(4,4-difluoropiperidin-1-yl)-4-(1H-tetrazol-1-yl)phenyl)-4-(ethylsulfonamido)-2-(6-azaspiro[2.5]octan-6-yl)benzamide] was run?
The IC50 was 15.9 nM.

And the IC50 (HT-29 cells; [2])?
Its IC50 is 18.4 nM.

What about the IC50 (recombinant human KIF18A; read-out: IC50) of the same molecule?
Its IC50 is 79.5 nM.

Which results are given for `CCS(=O)(=O)Nc1ccc(C(=O)Nc2ccc(-n3ncnn3)c(N3CCC(F)(F)CC3)c2)c(N2CCC3(CC2)CC3)c1` [Example 30, N-(3-(4,4-difluoropiperidin-1-yl)-4-(2H-tetrazol-2-yl)phenyl)-4-(ethylsulfonamido)-2-(6-azaspiro[2.5]octan-6-yl)benzamide]?
IC50 (OVCAR-3 cells; [1]): 13.3 nM; IC50 (HT-29 cells; [2]): 7.9 nM; IC50 (recombinant human KIF18A; read-out: IC50): 79 nM

How did the IC50 (OVCAR-3 cells; [1]) turn out when `CCS(=O)(=O)Nc1ccc(C(=O)Nc2ccc(-n3ccnn3)c(C3CCC(F)(F)CC3)c2)c(N2CCC3(CC2)CC3)c1` [Example 31, N-(3-(4,4-difluorocyclohexyl)-4-(1H-1,2,3-triazol-1-yl)pheny 1)-4-(ethylsulfonamido)-2-(6-azaspiro[2.5]octan-6-yl)benzamide] was run?
Its IC50 is 15.9 nM.

What about the IC50 (HT-29 cells; [2]) of the same molecule?
The IC50 was 8.3 nM.

And the IC50 (recombinant human KIF18A; read-out: IC50)?
The IC50 was 134 nM.

How did the IC50 (OVCAR-3 cells; [1]) turn out when `CCS(=O)(=O)Nc1ccc(C(=O)Nc2ccc(-c3nnc[nH]3)c(N3CCC(F)(F)CC3)c2)c(N2CCC3(CC2)CC3)c1` [Example 37, N-(3-(4,4-difluoropiperidin-1-yl)-4-(4H-1,2,4-triazol-3-yl)phenyl)-4-(ethylsulfonamido)-2-(6-azaspiro[2.5]octan-6-yl)benz amide] was run?
The IC50 was 3.6 nM.

What about the IC50 (HT-29 cells; [2]) of the same molecule?
Its IC50 is 3.8 nM.

What about the IC50 (recombinant human KIF18A; read-out: IC50) of the same molecule?
The IC50 was 39.8 nM.

With `CCS(=O)(=O)Nc1ccc(C(=O)Nc2ccc(-c3ncn(C)n3)c(N3CCC(F)(F)CC3)c2)c(N2CCC3(CC2)CC3)c1` [Example 39, N-(3-(4,4-difluoropiperidin-1-yl)-4-(1-methyl-1H-1,2,4-triazol-3-yl)phenyl)-4-(ethylsulfon amido)-2-(6-azaspiro[2.5]octan-6-yl)benzamide] as the molecule, how does the IC50 (OVCAR-3 cells; [1]) read?
Its IC50 is 3.8 nM.

What about the IC50 (HT-29 cells; [2]) of the same molecule?
The IC50 was 0.26 nM.

What about the IC50 (recombinant human KIF18A; read-out: IC50) of the same molecule?
Its IC50 is 122 nM.

For `O=C(Nc1ccc(-c2nnco2)c(N2CCC(F)(F)CC2)c1)c1ccc(NS(=O)(=O)C2CC2)cc1N1CCC2(CC1)CC2` [Example 41, 4-(cyclopropanesulfonamido)-N-(3-(4,4-difluoropiperidin-1-yl)-4-(1,3,4-oxadiazol-2-yl)phenyl)-2-(6-azaspiro[2.5]octan-6-yl)benzamide], which IC50 (OVCAR-3 cells; [1]) is on record?
Its IC50 is 6.2 nM.

What about the IC50 (HT-29 cells; [2]) of the same molecule?
Its IC50 is 1.8 nM.

What about the IC50 (recombinant human KIF18A; read-out: IC50) of the same molecule?
The IC50 was 155 nM.

For `CCS(=O)(=O)Nc1ccc(C(=O)Nc2ccc(-c3ncn(C)n3)c(OC3CC(F)(F)C3)c2)c(N2CCC3(CC2)CC3)c1` [Example 45, N-(3-(3,3-difluorocyclobutoxy)-4-(1-methyl-1H-1,2,4-triazol-3-yl)phenyl)-4-(ethylsulfonamido)-2-(6-azaspiro[2.5]octan-6-yl)benzamide], which IC50 (OVCAR-3 cells; [1]) is on record?
Its IC50 is 2.5 nM.

And the IC50 (HT-29 cells; [2])?
The IC50 was 6.2 nM.

And the IC50 (recombinant human KIF18A; read-out: IC50)?
The IC50 was 103 nM.

Which IC50 (OVCAR-3 cells; [1]) does the source give for `CCS(=O)(=O)Nc1ccc(C(=O)Nc2ccc(-c3ncn(C)n3)c(N3CC(F)(F)C3)c2)c(N2CCC3(CC2)CC3)c1` [Example 46, N-(3-(3,3-difluoroazetidin-1-y 1)-4-(1-methyl-1H-l,2,4-triazo 1-3-yl)phenyl)-4-(ethylsulfonamido)-2-(6-azaspiro[2.5]octan-6-yl)benzamide] here?
The IC50 was 3.7 nM.

And the IC50 (HT-29 cells; [2])?
Its IC50 is 0.15 nM.

And the IC50 (recombinant human KIF18A; read-out: IC50)?
The IC50 was 148 nM.
